Reference: patent US20050176685A1 (priority 2002, published 2005)

Assays:
vitamin D receptor = biological target: T1, vitamin D receptor (Homo sapiens, UniProt P11473); conditions: compared with 1α,25-dihydroxy-cholecalciferol; cited from earlier work
T1 sequence (P11473 1-427): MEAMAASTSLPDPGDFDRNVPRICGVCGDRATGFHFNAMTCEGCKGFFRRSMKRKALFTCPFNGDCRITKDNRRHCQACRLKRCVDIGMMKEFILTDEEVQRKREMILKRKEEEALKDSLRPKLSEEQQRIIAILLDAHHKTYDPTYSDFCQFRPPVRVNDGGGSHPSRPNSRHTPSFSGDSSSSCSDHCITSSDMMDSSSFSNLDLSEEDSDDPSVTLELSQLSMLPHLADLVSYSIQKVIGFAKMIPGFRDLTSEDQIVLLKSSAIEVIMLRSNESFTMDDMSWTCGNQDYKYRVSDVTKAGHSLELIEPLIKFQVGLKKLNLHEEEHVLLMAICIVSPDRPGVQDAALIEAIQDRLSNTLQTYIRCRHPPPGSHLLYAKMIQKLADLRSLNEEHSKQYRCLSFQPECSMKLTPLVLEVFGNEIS

[1] = 50 micrograms equivalent to about 70 micrograms (2800 IU) of vitamin D3; cited from earlier work

SMILES | Progression of vertebral deformity (compared to placebo patients) | Decrease in the risk of vertebral fractures (compared to placebo, statistically significant, patients with fractures) | Reduction in vertebral fracture rate per 100 patients (total number of vertebral fractures, compared to placebo) | Intrinsic activity relative to 1α,25-dihydroxy-cholecalciferol (vitamin D receptor) | Potency relative to vitamin D3 [1]
NCCCC(O)(P(=O)(O)O)P(=O)(O)O [alendronate, 4-Amino-1-hydroxybutylidene-1,1-bisphosphonic acid monosodium trihydrate] | statistically significant decrease | at least 40% | at least 50% |  | 
C=C1CC[C@H](O)C/C1=C/C=C1\CCC[C@]2(C)[C@@H]([C@H](C)CCCC(C)(C)O)CC[C@@H]12 [25-hydroxy-cholecalciferol] |  |  |  | about 100 fold lower | about 1.4 times
